Measurements taken from US20080170990A1, “Methods for Myocardial Imaging in Patients Having a History of Pulmonary Disease” (CV THERAPEUTICS, INC., priority 2006, published 2008).
Where two headings read alike, the source gives them in different places.

Columns and labels:
COPD patients = conditions: both, human, in vivo
From the text: COPD patients were selected from two phase III randomized, triple-blind, placebo-controlled, multicenter studies (N=2,015) designed to test the strength of agreement for reversible cardiac defects between ADO and REG. There were 35 patients in the ADO group and 69 in the Regadenoson group. Age and gender were similar between ADO (68=11 yrs; 77% male) and Regadenoson group (68±11 yrs; 81% male). Of the 35 patients, 5 suffered (14%) cardiac symptoms in the ADO group vs 3/69 (4%) in the Regadenoson group (p=0.12); 14/35 (40%) in the ADO vs. 20/69 (29%) in the Regadenoson group resorted respiratory symptoms (p=0.28). Angina, occurrence of second degree AV block, acute pulmonary oedema and ronchi were higher in ADO group; nausea, GI discomfort and headache occurred more often in the Regadenoson group.

[1] = tested on: patients undergoing a clinically indicated coronary catheterization; test: Coronary blood flow velocity (CBFv) by Doppler flow wire after IV bolus, open label study (Example 1); assay type: in vivo, human
Method: The purpose of this open label study was to determine the magnitude and duration of effect of Regadenoson (10-500 μg) on CBFv in humans.
Patients undergoing a clinically indicated coronary catheterization with no more than a 70% stenosis in any coronary artery and no more than a 50% stenosis of the study vessel had CBFv determined by Doppler flow wire. Study subjects were selected after measuring baseline and peak CBFv after an intracoronary (IC) injection of 18 μg of Ado. Twenty-three patients, who were identified as meeting the study criteria of having a peak to baseline CBFv ration of ≧2.5 in response to Adenosine, received a rapid (≦10 sec) peripheral IV bolus of Regadenoson; Doppler signals were stable and interpretable over the time-course of the increase in CBFv in 17 patients.

[2] = tested on: patients with moderate or several chronic obstructive pulmonary disease (COPD); test: Double-blind placebo-controlled crossover trial in chronic obstructive pulmonary disease (Example 11); assay type: in vivo, human
Method: Two similar randomized, double-blind, placebo (PLC)-controlled crossover trials were conducted, one in asthmatics with a positive adenosine monophosphate (AMP) challenge (a validated marker of airway inflammation) and one in patients with moderate or several chronic obstructive pulmonary disease (COPD). In both studies, short-acting bronchodilators were held prior to and for the 120 minute time frame study drug treatment during which spirometry was repeatedly assessed.

awake rats = test: Sympathoexcitation: heart rate, blood pressure and plasma catecholamines after i.v. bolus (Example 5); assay type: in vivo, rat
Method: CVT (0.31 μg/kg-50 μg/kg) was given as a rapid i.v. bolus to awake rats and heart rate (HR) and blood pressure (BP) were monitored. Regadenoson caused an increase in BP and systolic pressure (SP) at lower doses while at higher doses there was a decrease in BP and SP. […] The increase in HR was evident at the lowest dose of CVT at which there was no appreciable decrease in BP. ZM241385 (30 μg/kg, N=5), an A2A adenosine receptor antagonist, attenuated the decrease in BP (Regadenoson: 14±3%, ZM: 1±1%) and the increase in HR (CVT: 27±3%, ZM: 18±3%) caused by Regadenoson. Pretreatment with metoprolol (MET, 1 mg/kg, n=5), a beta-blocker, attenuated the increase in HR (CVT: 27±3%, MET: 15±2%), but had no effect on hypotension caused by Regadenoson. In the presence of hexamethonium (HEX, 10 mg/kg, n=5), a ganglionic blocker, the tachycardia was prevented (CVT: 27±3%, HEX: −1±2%), but BP was further reduced (CVT: −11±2%, HEX: −49±5%).

[3] = Phase 1 pharmacokinetics after single IV bolus, three-compartment model (Example 3); assay type: in vivo, human; conditions: for Vd: human, plasma, intravenous, read-out: Vc (central volume of distribution)
Method: Regadenoson was administered as an IV bolus (20 seconds) in ascending doses of […], 10, 20 and 30 μg/kg.
Plasma samples were drawn during supine phase (Days 1 and 2) at 0, 1, 2, 3, 4, 5, 7, 10, 15, 20, 30, 45 minutes after dosing and at 1, 1.5, 2, 4, 6, 8, 12 and 24 hours after dosing. Urine was collected for 24 hours for Regadenoson excretion.
A three-compartment open model was fit to the data using observed Tmax (1-4 minutes) as the duration of a zero-order infusion. Reliable parameter estimates were obtained for dose of 1-30 μg/kg. Parameters are summarized in the following (Table 2): […]

SMILES: CNC(=O)c1cnn(-c2nc(N)c3ncn([C@@H]4O[C@H](CO)[C@@H](O)[C@H]4O)c3n2)c1 [Regadenoson, (1-{9-[(4S,2R,3R,5R)-3,4-dihydroxy-5-(hydroxymethyl)oxolan-2-yl]-6-aminopurin-2-yl}pyrazol-4-yl)-N-methylcarboxamide]
- patients with cardiac symptoms (COPD patients): 4%
- patients with cardiac symptoms, number (COPD patients): 3/69
- patients with respiratory symptoms (COPD patients): 29%
- patients with respiratory symptoms, number (COPD patients): 20/69
- maximal decrease in systolic BP ([1]; 500 μg IV bolus): 8.7±7.6
- maximal increase in HR ([1]; 500 μg IV bolus): 18.7±4.0
- adverse events (AEs) ([1]; 3 patients receiving the 500 μg dose): No AEs
- adverse events (AEs) ([1]; 10-500 μg IV bolus, nausea, flushing, headache, mild and self-limited): infrequent
- peak to baseline CBFv ratio ([1]; Regadenoson 100, 300 and 500 μg IV bolus, mean ±SD): 3.2±0.6
- incidence of dyspnea following REG ([2]; COPD study): 61%
- Number of patients with FEV1 decline by >20% over 120 min ([2]; COPD study N=49): 2 REG, 3 PLC
- Number of patients with FEV1 decline by >30% over 120 min ([2]; COPD study N=49): 0 REG, 1 PLC
- Number of patients with use of acute oxygen or short-acting bronchodilators ([2]; COPD study N=49): 0 REG, 0 PLC
- Number of patients with FEV1 decline by >15% over 120 min ([2]; COPD study N=49, p = 0.31): 6 REG, 3 PLC
- Number of patients with new onset wheezing ([2]; COPD study N=49, p = 0.33 vs PLC): 3 REG, 6 PLC
- Maximum decline in FEV1 ([2]; COPD study N=49, p = 0.55 vs PLC): 0.11 (0.14)L REG
- Maximum decline in oxygen saturation ([2]; COPD study N=49, p = 0.72 vs PLC): 1.21 (1.30)% REG
- effect on HR (awake rats; 0.31 μg/kg-50 μg/kg rapid i.v. bolus): dose-dependent increase in HR
- BP change caused by Regadenoson (awake rats; CVT alone (hexamethonium experiment)): −11±2%
- increase in HR caused by Regadenoson (awake rats; CVT alone (printed three times: ZM, MET, HEX comparisons)): 27±3%
- decrease in BP caused by Regadenoson (awake rats; Regadenoson alone (ZM241385 experiment)): 14±3%
- K21 (rate constant for transfer from first peripheral to central compartment) ([3]; Total (all doses), N=22, mean): 0.258 min⁻¹
- K31 (rate constant for transfer from second peripheral to central compartment) ([3]; Total (all doses), N=22, mean): 0.0143 min⁻¹
- Vss (volume of distribution at steady state) ([3]; Total (all doses), N=22, mean): 75.5 L
- K21 (rate constant for transfer from first peripheral to central compartment) ([3]; dose 1 μg/kg, N=3, mean): 0.246 min⁻¹
- K31 (rate constant for transfer from second peripheral to central compartment) ([3]; dose 1 μg/kg, N=3, mean): 0.01808 min⁻¹
- K21 (rate constant for transfer from first peripheral to central compartment) ([3]; dose 3 μg/kg, N=4, mean): 0.203 min⁻¹
- K31 (rate constant for transfer from second peripheral to central compartment) ([3]; dose 3 μg/kg, N=4, mean): 0.0152 min⁻¹
- α Half-life ([3]; dose 3 μg/kg, N=4, mean): 3.11 min
- K21 (rate constant for transfer from first peripheral to central compartment) ([3]; dose 10 μg/kg, N=4, mean): 0.187 min⁻¹
- K31 (rate constant for transfer from second peripheral to central compartment) ([3]; dose 10 μg/kg, N=4, mean): 0.0108 min⁻¹
- K21 (rate constant for transfer from first peripheral to central compartment) ([3]; dose 20 μg/kg, N=8, mean): 0.387 min⁻¹
- K31 (rate constant for transfer from second peripheral to central compartment) ([3]; dose 20 μg/kg, N=8, mean): 0.0141 min⁻¹
- CL (clearance) ([3]; dose 20 μg/kg, N=8, mean (SD)): 743 (123) mL/min
- K21 (rate constant for transfer from first peripheral to central compartment) ([3]; dose 30 μg/kg, N=3, mean): 0.0948 min⁻¹
- K31 (rate constant for transfer from second peripheral to central compartment) ([3]; dose 30 μg/kg, N=3, mean): 0.0148 min⁻¹
- Vss (volume of distribution at steady state) ([3]; dose 30 μg/kg, N=3, mean): 89.6 L
- λ Half-life ([3]; dose 30 μg/kg, N=3, mean): 99.4 min
- Vd ([3]; 1 ug/kg, N=3, mean (SD)): 9.84 L
- Vd ([3]; 3 ug/kg, N=4, mean (SD)): 13.7 L
- Vd ([3]; 10 ug/kg, N=4, mean (SD)): 17.9 L
- Vd ([3]; 20 ug/kg, N=8, mean): 12.5 L
- Vd ([3]; 30 ug/kg, N=3, mean): 15.7 L
- Vd ([3]; Total (all doses), N=22, mean): 13.8 L
